{"source": "patent US9822147B2", "about": "“Methods of treating ophthalmic diseases using NPR-B agonists” (priority 2009, dated 2017)", "note": "Numbered stars: 1 amine (or outer) side, 2 acyl side, 3 side chain; on linkers, the order of the positions; unused ones are H or OH. Square brackets hold non-standard residues; d marks the D form. Peptide text beside a SMILES is read from it. * marks the point of attachment. Phe(4-Br) = N[C@@H](Cc1ccc(Br)cc1)C(=O)O; X9 = CN(C)CC[C@@H](N[*:1])C(=O)[*:2]; X11 = O=C(C(CCN1CCCC1)N[*:1])[*:2]; X19 = O=C(C(CC1CCNCC1)N[*:1])[*:2]; X2 = O=C([C@H]1CCCN([*:1])C1)[*:2]; Hyp = O=C(O)[C@@H]1C[C@@H](O)CN1; NMeF = CN[C@@H](Cc1ccccc1)C(=O)O; NHcycloheptyl = C1CCCC(N*)CC1; NMeL = CN[C@@H](CC(C)C)C(=O)O; dOrn = NCCC[C@@H](N)C(=O)O; Octanoyl = CCCCCCCC(=O)*; tBu = CC(C)(C)*"}
{"biological_target": "T1, NPR-B (Homo sapiens, UniProt P20594)", "T1 construct": "a functional assay using endogenously NPR-B expressing GTM-3 cells; endogenous in cells; host or cells: GTM-3 (human glaucoma trabecular meshwork cells)", "T1 sequence (P20594 23-1047)": "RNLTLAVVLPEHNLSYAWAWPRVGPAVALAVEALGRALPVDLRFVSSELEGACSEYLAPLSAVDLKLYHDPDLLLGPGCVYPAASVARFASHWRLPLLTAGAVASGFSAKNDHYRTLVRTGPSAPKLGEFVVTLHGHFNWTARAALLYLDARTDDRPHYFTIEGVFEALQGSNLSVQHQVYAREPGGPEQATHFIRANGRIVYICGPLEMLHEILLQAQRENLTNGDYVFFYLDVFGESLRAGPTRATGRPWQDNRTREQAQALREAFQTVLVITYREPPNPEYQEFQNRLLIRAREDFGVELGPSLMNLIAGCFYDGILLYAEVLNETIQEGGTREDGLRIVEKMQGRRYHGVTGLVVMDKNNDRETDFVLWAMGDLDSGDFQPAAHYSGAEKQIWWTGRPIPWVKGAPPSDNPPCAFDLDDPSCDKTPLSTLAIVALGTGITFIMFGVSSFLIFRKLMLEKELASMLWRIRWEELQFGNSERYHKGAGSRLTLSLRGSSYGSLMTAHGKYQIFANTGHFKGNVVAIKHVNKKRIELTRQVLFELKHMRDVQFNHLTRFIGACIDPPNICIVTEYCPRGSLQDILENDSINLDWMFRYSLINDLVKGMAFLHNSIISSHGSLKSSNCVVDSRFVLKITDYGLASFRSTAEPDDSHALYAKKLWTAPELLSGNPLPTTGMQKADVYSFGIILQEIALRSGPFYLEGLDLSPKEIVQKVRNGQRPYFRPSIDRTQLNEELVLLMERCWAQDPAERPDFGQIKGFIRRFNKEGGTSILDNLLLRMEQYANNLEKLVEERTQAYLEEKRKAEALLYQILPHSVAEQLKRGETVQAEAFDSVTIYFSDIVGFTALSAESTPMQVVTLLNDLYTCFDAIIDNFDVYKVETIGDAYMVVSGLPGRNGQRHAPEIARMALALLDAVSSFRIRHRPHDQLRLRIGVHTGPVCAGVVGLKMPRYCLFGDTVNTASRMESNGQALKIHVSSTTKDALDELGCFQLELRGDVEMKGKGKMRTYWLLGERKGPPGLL", "test": "NPR-B induced production of cyclic GMP in human glaucoma trabecular meshwork cells (GTM-3)", "type": "cell-based", "conditions": "group by EC50 and Emax (CNP = 100%); Table 4; read-out: Activity (group), NPR-B activation assayed with GTM-3 cells", "units": {"EC50": "nM"}}
{"smiles": "CCCCCCCC(=O)N1CCC[C@H](C(=O)N(C)[C@@H](Cc2ccccc2)C(=O)N[C@H](CC(C)C)C(=O)N[C@@H](CC(C)C)C(=O)N2C[C@H](O)C[C@H]2C(=O)N(C)[C@@H](CC(C)C)C(=O)N[C@@H](CC(=O)O)C(=O)N2CCC[C@H]2C(=O)NC2CCCCCC2)C1", "note": "[JAL-1597, Occ-Sni-Nmf-leu-Leu-Hyp-Nml-Asp-Pro-Che] (Octanoyl-[X2][NMeF][dL]L[Hyp][NMeL]DP-NHcycloheptyl)", "EC50": "< 1000"}
{"smiles": "CCCCCCCC(=O)N1CCC[C@H](C(=O)N[C@@H](Cc2ccccc2)C(=O)N[C@H](CCN(C)C)C(=O)N[C@@H](CC(C)C)C(=O)N2C[C@H](O)C[C@H]2C(=O)N(C)[C@@H](CC(C)C)C(=O)N[C@@H](CC(=O)O)C(=O)N[C@@H](CCCNC(=N)N)C(=O)N[C@H](C(N)=O)[C@@H](C)CC)C1", "note": "[JAL-1785, Occ-Sni-Phe-dab(Me2)-Leu-Hyp-Nml-Asp-Arg-Ile-NH2] (Octanoyl-[X2]F[X9]L[Hyp][NMeL]DRI-NH2)", "EC50": "< 1000"}
{"smiles": "CCCCCCCC(=O)N[C@@]1(C)CCN([C@@H](Cc2ccccc2)C(=O)N[C@H](CC(C)C)C(=O)N[C@@H](CC(C)C)C(=O)N2C[C@H](O)C[C@H]2C(=O)N(C)[C@@H](CC(C)C)C(=O)N[C@@H](CC(=O)O)C(=O)N[C@@H](CCCNC(=N)N)C(=O)N[C@H](C(N)=O)[C@@H](C)CC)C1=O", "note": "[JAL-1774, (AR-314-102)-leu-Leu-Hyp-Nml-Asp-Arg-Ile-NH2]", "EC50": "< 1000"}
{"smiles": "CCCCCCCC(=O)N1CCC[C@H](C(=O)N[C@@H](Cc2ccccc2)C(=O)N[C@H](CC(C)C)C(=O)N[C@@H](CC(C)C)C(=O)N2C[C@H](O)C[C@H]2C(=O)N(C)[C@@H](CC(C)C)C(=O)N[C@H](C(=O)N[C@@H](CCCNC(=N)N)C(=O)N[C@H](C(N)=O)[C@@H](C)CC)C(C)C)C1", "note": "[JAL-1398, Occ-Sni-Phe-leu-Leu-Hyp-Nml-Val-Arg-Ile-NH2] (HELM PEPTIDE1{[CCCCCCCC(=O)[*:2]].[O=C([C@H]1CCCN([*:1])C1)[*:2]].F.[dL].L.[Hyp].[meL].V.R.I.[am]}$$$$V2.0)", "EC50": "< 1000"}
{"smiles": "CCCCCCCC(=O)N[C@H](C)C(=O)N[C@@H](Cc1ccccc1)C(=O)N[C@H](CCCN)C(=O)N[C@@H](CC(C)C)C(=O)N1C[C@H](O)C[C@H]1C(=O)N(C)[C@@H](CC(C)C)C(=O)N[C@@H](CC(=O)O)C(=O)N[C@@H](CCCNC(=N)N)C(=O)N[C@H](C(N)=O)[C@@H](C)CC", "note": "[JAL-1061, Occ-ala-Phe-orn-Leu-Hyp-Nml-Asp-Arg-Ile-NH2] (HELM PEPTIDE1{[CCCCCCCC(=O)[*:2]].[dA].F.[NCCC[C@@H](N[*:1])C(=O)[*:2]].L.[Hyp].[meL].D.R.I.[am]}$$$$V2.0)", "EC50": "< 1000"}
{"smiles": "CCCCCCCCCC(=O)N1CCC[C@H](C(=O)N[C@@H](Cc2ccccc2)C(=O)N[C@H](CC(C)C)C(=O)N[C@@H](CC(C)C)C(=O)N2C[C@H](O)C[C@H]2C(=O)N(C)[C@@H](CC(C)C)C(=O)N[C@@H](CC(=O)O)C(=O)N[C@@H](CCCNC(=N)N)C(=O)N[C@H](C(N)=O)[C@@H](C)CC)C1", "note": "[JAL-1666, 5587-Sni-Phe-leu-Leu-Hyp-Nml-Asp-Arg-Ile-NH2] (HELM PEPTIDE1{[CCCCCCCCCC(=O)[*:2]].[O=C([C@H]1CCCN([*:1])C1)[*:2]].F.[dL].L.[Hyp].[meL].D.R.I.[am]}$$$$V2.0)", "EC50": "< 1000"}
{"smiles": "CCCCCCCC(=O)N1CCC[C@H](C(=O)N[C@@H](Cc2ccccc2)C(=O)NC(CC2CCNCC2)C(=O)N[C@@H](CC(C)C)C(=O)N2C[C@H](O)C[C@H]2C(=O)N(C)[C@@H](CC(C)C)C(=O)N[C@@H](CC(=O)O)C(=O)N[C@@H](CCCNC(=N)N)C(=O)N[C@H](C(N)=O)[C@@H](C)CC)C1", "note": "(stereo partly drawn) [JAL-1890, Occ-Sni-Phe-Egg-Leu-Hyp-Nml-Asp-Arg-Ile-NH2] (Octanoyl-[X2]F[X19]L[Hyp][NMeL]DRI-NH2)", "EC50": "< 1000"}
{"smiles": "CCCCCCCC(=O)N1CCC[C@H](C(=O)N[C@@H](Cc2ccccc2)C(=O)N[C@H](CC(C)C)C(=O)N[C@@H](CC(C)C)C(=O)N2C[C@H](O)C[C@H]2C(=O)N(C)[C@@H](CC(C)C)C(=O)N[C@@H](CC(=O)O)C(=O)N[C@@H](CCCNC(=N)N)C(=O)NC2CCCCCC2)C1", "note": "[JAL-1680, Occ-Sni-Phe-leu-Leu-Hyp-Nml-Asp-Arg-Che] (Octanoyl-[X2]F[dL]L[Hyp][NMeL]DR-NHcycloheptyl)", "EC50": "< 1000"}
{"smiles": "CCCCCCCC(=O)N[C@H](C)C(=O)N[C@@H](Cc1ccccc1)C(=O)N[C@H](CCCNC(=N)N)C(=O)N[C@@H](CC(C)C)C(=O)N1C[C@H](O)C[C@H]1C(=O)N(C)[C@@H](CC(C)C)C(=O)N[C@@H](CC(=O)O)C(=O)N[C@@H](CCCNC(=N)N)C(=O)N[C@H](C(N)=O)C(C)(C)C", "note": "[JAL-1305, Occ-ala-Phe-arg-Leu-Hyp-Nml-Asp-Arg-Tbg-NH2] (HELM PEPTIDE1{[CCCCCCCC(=O)[*:2]].[dA].F.[dR].L.[Hyp].[meL].D.R.[CC(C)(C)[C@H](N[*:1])C(=O)[*:2]].[am]}$$$$V2.0)", "EC50": "< 1000"}
{"smiles": "CCCCCCCC(=O)N[C@H](C)C(=O)N[C@@H](Cc1ccccc1)C(=O)N[C@H](CC(C)C)C(=O)N[C@@H](CC(C)C)C(=O)N1C[C@H](O)C[C@H]1C(=O)N(C)[C@@H](CC(C)C)C(=O)N[C@H](C(=O)N[C@@H](CCCNC(=N)N)C(=O)N[C@H](C(N)=O)[C@@H](C)CC)C1CCCC1", "note": "[JAL-1556, Occ-ala-Phe-leu-Leu-Hyp-Nml-(BB725)-Arg-Ile-NH2] (HELM PEPTIDE1{[CCCCCCCC(=O)[*:2]].[dA].F.[dL].L.[Hyp].[meL].[O=C([C@@H](N[*:1])C1CCCC1)[*:2]].R.I.[am]}$$$$V2.0)", "EC50": "< 1000"}
{"smiles": "CCCCCCCC(=O)N1CCC[C@H](C(=O)N[C@@H](Cc2ccc(Br)cc2)C(=O)N[C@H](CC(C)C)C(=O)N[C@@H](CC(C)C)C(=O)N2C[C@H](O)C[C@H]2C(=O)N(C)[C@@H](CC(C)C)C(=O)N[C@@H](CC(=O)O)C(=O)N[C@@H](CCCNC(=N)N)C(=O)N[C@H](C(N)=O)[C@@H](C)CC)C1", "note": "[JAL-1619, Occ-Sni-Pbf-leu-Leu-Hyp-Nml-Asp-Arg-Ile-NH2] (Octanoyl-[X2][Phe(4-Br)][dL]L[Hyp][NMeL]DRI-NH2)", "EC50": "< 1000"}
{"smiles": "CCCCCCCC(=O)N1CCC[C@H](C(=O)N[C@@H](Cc2ccccc2)C(=O)N[C@H](CSC(C)(C)C)C(=O)N[C@@H](CC(C)C)C(=O)N2C[C@H](O)C[C@H]2C(=O)N(C)[C@@H](CC(C)C)C(=O)N[C@@H](CC(=O)O)C(=O)N[C@@H](CCCNC(=N)N)C(=O)N[C@H](C(N)=O)[C@@H](C)CC)C1", "note": "[JAL-1623, Occ-Sni-Phe-ctb-Leu-Hyp-Nml-Asp-Arg-Ile-NH2] (Octanoyl-[X2]F[dC](tBu)L[Hyp][NMeL]DRI-NH2)", "EC50": "< 1000"}
{"smiles": "CCCCCCCC(=O)N1CCC[C@H](C(=O)N[C@@H](Cc2ccccc2)C(=O)N[C@H](CCCN)C(=O)N[C@@H](CC(C)C)C(=O)N2C[C@H](O)C[C@H]2C(=O)N(C)[C@@H](CC(C)C)C(=O)N[C@@H](CC(=O)O)C(=O)N[C@@H](CCCNC(=N)N)C(=O)N[C@H](C(N)=O)[C@@H](C)CC)C1", "note": "[JAL-1265, Occ-Sni-Phe-orn-Leu-Hyp-Nml-Asp-Arg-Ile-NH2] (Octanoyl-[X2]F[dOrn]L[Hyp][NMeL]DRI-NH2)", "EC50": "< 1000"}
{"smiles": "CCCCCCCC(=O)N1CCC[C@H](C(=O)N[C@@H](Cc2ccccc2)C(=O)NC(CCN2CCCC2)C(=O)N[C@@H](CC(C)C)C(=O)N2C[C@H](O)C[C@H]2C(=O)N(C)[C@@H](CC(C)C)C(=O)N[C@@H](CC(=O)O)C(=O)N[C@@H](CCCNC(=N)N)C(=O)N[C@H](C(N)=O)[C@@H](C)CC)C1", "note": "(stereo partly drawn) [JAL-1877, Occ-Sni-Phe-(AR-385-12)-Leu-Hyp-Nml-Asp-Arg-Ile-NH2] (Octanoyl-[X2]F[X11]L[Hyp][NMeL]DRI-NH2)", "EC50": "< 1000"}
